Measured values as given in patent publication US12559492B2, “BRAF degraders” (C4 Therapeutics, Inc., priority 2020, dated 2026).
Counter-ions that a name gives are not always drawn.

Target: BRAF^V600E protein (Homo sapiens, UniProt P15056, V600E)
Experiment: HiBiT cellular BRAF V600E degradation assay
Type: cell-based
Conditions: 24 h incubation; for DC50: A375.10 cells (HiBiT tag knocked in at N-terminal of BRAF V600E), concentration at which 50% of total cellular BRAF V600E is degraded; for Emax: A375.10 cells, Emax = amount of residual protein remaining in the cell after compound treatment, read-out: HiBit 24 h Emax

Sequence of BRAF^V600E protein (P15056 whole entry V600E): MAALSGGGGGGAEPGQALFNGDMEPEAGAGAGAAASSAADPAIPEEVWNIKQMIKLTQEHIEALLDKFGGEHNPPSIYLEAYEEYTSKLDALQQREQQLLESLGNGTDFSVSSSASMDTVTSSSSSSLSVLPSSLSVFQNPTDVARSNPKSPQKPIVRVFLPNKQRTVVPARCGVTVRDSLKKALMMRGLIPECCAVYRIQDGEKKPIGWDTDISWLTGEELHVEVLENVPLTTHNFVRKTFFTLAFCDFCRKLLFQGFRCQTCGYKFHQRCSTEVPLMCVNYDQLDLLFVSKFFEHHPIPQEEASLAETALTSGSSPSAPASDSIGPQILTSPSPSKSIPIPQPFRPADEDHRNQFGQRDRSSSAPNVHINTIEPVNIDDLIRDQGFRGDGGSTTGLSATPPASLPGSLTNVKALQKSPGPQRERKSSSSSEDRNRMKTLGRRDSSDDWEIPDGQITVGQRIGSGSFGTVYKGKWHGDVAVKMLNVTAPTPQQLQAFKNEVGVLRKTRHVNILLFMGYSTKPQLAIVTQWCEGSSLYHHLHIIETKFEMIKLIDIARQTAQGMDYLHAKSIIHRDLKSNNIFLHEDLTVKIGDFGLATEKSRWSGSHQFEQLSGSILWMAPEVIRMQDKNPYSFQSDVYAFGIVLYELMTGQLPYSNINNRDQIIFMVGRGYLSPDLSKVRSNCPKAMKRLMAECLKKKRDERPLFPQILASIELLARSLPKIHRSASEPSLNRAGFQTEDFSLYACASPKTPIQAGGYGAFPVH

Row | SMILES | DC50 [nM] | Emax [%]
1 | CCN(C)S(=O)(=O)Nc1ccc(F)c(C(=O)c2c[nH]c3ncc(-c4ccc(CN5CCN(C(=O)CN6CCN(c7ccc(NC8CCC(=O)NC8=O)cc7)CC6)CC5)cc4)cc23)c1F (stereo not drawn) [Example 95, 5-[4-[[4-[2-[4-[4-[(2,6-dioxo-3-piperidyl)amino]phenyl]piperazin-1-yl]acetyl]piperazin-1-yl]methyl]phenyl]-3-[3-[[ethyl(methyl)sulfamoyl]amino]-2,6-difluoro-benzoyl]-1H-pyrrolo[2,3-b]pyridine] | 30.4 | 12.8
2 | CCN(C)S(=O)(=O)Nc1ccc(F)c(C(=O)c2c[nH]c3ncc(-c4cnc(N5CCN(C(=O)CC6CCN(c7ccc8c(c7)n(C)c(=O)n8C7CCC(=O)NC7=O)CC6)CC5)nc4)cc23)c1F (stereo not drawn) [Example 43, 1-(2,6-dioxo-3-piperidyl)-5-[4-[2-[4-[5-[3-[3-[[ethyl(methyl)sulfamoyl]amino]-2,6-difluoro-benzoyl]-1H-pyrrolo[2,3-b]pyridin-5-yl]pyrimidin-2-yl]piperazin-1-yl]-2-oxo-ethyl]-1-piperidyl]-3-methyl-2-oxo-benzimidazole] | 22.1 | 35.2
3 | CCN(C)S(=O)(=O)Nc1ccc(F)c(C(=O)c2c[nH]c3ncc(-c4ccc(N5CCN(C(=O)CC6(O)CCN(c7ccc(NC8CCC(=O)NC8=O)cc7F)CC6)CC5)cc4)cc23)c1F (stereo not drawn) [Example 89, 5-[4-[4-[2-[1-[4-[(2,6-dioxo-3-piperidyl)amino]-2-fluoro-phenyl]-4-hydroxy-4-piperidyl]acetyl]piperazin-1-yl]phenyl]-3-[3-[[ethyl(methyl)sulfamoyl]amino]-2,6-difluoro-benzoyl]-1H-pyrrolo[2,3-b]pyridine] | 1.4 | 8.6
4 | CC(C)S(=O)(=O)Nc1ccc(F)c(C(=O)c2c[nH]c3ncc(-c4cnc(N5CCN(C(=O)CN6CCC(c7ccc(C8CCC(=O)NC8=O)cc7F)CC6)CC5)nc4)cc23)c1F (stereo not drawn) [Example 9, N-[3-[5-[2-[4-[2-[4-[4-(2,6-dioxo-3-piperidyl)-2-fluoro-phenyl]-1-piperidyl]acetyl]piperazin-1-yl]pyrimidin-5-yl]-1H-pyrrolo[2,3-b]pyridine-3-carbonyl]-2,4-difluoro-phenyl]propane-2-sulfonamide] | 10.7 | 3.41
5 | CCN(C)S(=O)(=O)Nc1cccc(C(=O)c2c[nH]c3ncc(-c4cnc(N5CCN(C(=O)CC6(O)CCN(c7ccc(NC8CCC(=O)NC8=O)cn7)CC6)CC5)nc4)cc23)c1F (stereo not drawn) [Example 105, 5-[2-[4-[2-[1-[5-[(2,6-dioxo-3-piperidyl)amino]-2-pyridyl]-4-hydroxy-4-piperidyl]acetyl]piperazin-1-yl]pyrimidin-5-yl]-3-[3-[[ethyl(methyl)sulfamoyl]amino]-2-fluoro-benzoyl]-1H-pyrrolo[2,3-b]pyridine] | 42.2 | 36.9
6 | CCN(C)S(=O)(=O)Nc1ccc(F)c(C(=O)c2c[nH]c3ncc(C#CC4CCN(C(=O)CN5CCC(c6ccc(NC7CCC(=O)NC7=O)cc6F)CC5)CC4)cc23)c1F (stereo not drawn) [Example 124, 5-[2-[1-[2-[4-[4-[(2,6-dioxo-3-piperidyl)amino]-2-fluoro-phenyl]-1-piperidyl]acetyl]-4-piperidyl]ethynyl]-3-[3-[[ethyl(methyl)sulfamoyl]amino]-2,6-difluoro-benzoyl]-1H-pyrrolo[2,3-b]pyridine] | 22.1 | 13
7 | CCN(C)S(=O)(=O)Nc1ccc(F)c(C(=O)c2c[nH]c3ncc(-c4ccc(N5CCN(C(=O)CN6CCC(Nc7ccc8c(C9CCC(=O)NC9=O)nn(C)c8c7)CC6)CC5)nc4)cc23)c1F (stereo not drawn) [Example 75, 3-(2,6-dioxo-3-piperidyl)-6-[[1-[2-[4-[5-[3-[3-[[ethyl(methyl)sulfamoyl]amino]-2,6-difluoro-benzoyl]-1H-pyrrolo[2,3-b]pyridin-5-yl]-2-pyridyl]piperazin-1-yl]-2-oxo-ethyl]-4-piperidyl]amino]-1-methyl-indazole] | 6.26 | 11.6
8 | CCN(C)S(=O)(=O)Nc1ccc(F)c(C(=O)c2c[nH]c3ncc(-c4ccc(N5CCN(C(=O)CC6(O)CCN(c7cc(Cl)c(N8CCC(=O)NC8=O)cc7F)CC6)CC5)nc4)cc23)c1F [Example 219, 5-[6-[4-[2-[1-[5-chloro-4-(2,4-dioxohexahydropyrimidin-1-yl)-2-fluoro-phenyl]-4-hydroxy-4-piperidyl]acetyl]piperazin-1-yl]-3-pyridyl]-3-[3-[[ethyl(methyl)sulfamoyl]amino]-2,6-difluoro-benzoyl]-1H-pyrrolo[2,3-b]pyridine] | 1.65 | 6.11
9 | CCN(C)S(=O)(=O)Nc1ccc(F)c(C(=O)c2c[nH]c3ncc(-c4cnc(N5CCN(C(=O)CC6(O)CCN(c7ccc(N8CCC(=O)NC8=O)cc7F)CC6)CC5)c(F)c4)cc23)c1F [Example 194, 5-[6-[4-[2-[1-[4-(2,4-dioxohexahydropyrimidin-1-yl)-2-fluoro-phenyl]-4-hydroxy-4-piperidyl]acetyl]piperazin-1-yl]-5-fluoro-3-pyridyl]-3-[3-[[ethyl(methyl)sulfamoyl]amino]-2,6-difluoro-benzoyl]-1H-pyrrolo[2,3-b]pyridine] | 4.5 | 8.29
10 | CCN(C)S(=O)(=O)Nc1ccc(F)c(C(=O)c2c[nH]c3ncc(-c4cnc(N5CC6(CC(CC(=O)N7CCC(c8ccc(NC9CCC(=O)NC9=O)cc8)CC7)C6)C5)nc4)cc23)c1F (stereo not drawn) [Example 133, 5-[2-[6-[2-[4-[4-[(2,6-dioxo-3-piperidyl)amino]phenyl]-1-piperidyl]-2-oxo-ethyl]-2-azaspiro[3.3]heptan-2-yl]pyrimidin-5-yl]-3-[3-[[ethyl(methyl)sulfamoyl]amino]-2,6-difluoro-benzoyl]-1H-pyrrolo[2,3-b]pyridine] | 14.7 | 11.4
11 | CCCS(=O)(=O)Nc1ccc(F)c(C(=O)c2c[nH]c3ncc(-c4ccc(N5CCN(C(=O)CN6CCC(c7ccc(NC8CCC(=O)NC8=O)cc7)CC6)CC5)nc4)cc23)c1F (stereo not drawn) [Example 3, N-[3-[5-[6-[4-[2-[4-[4-[(2,6-dioxo-3-piperidyl)amino]phenyl]-1-piperidyl]acetyl]piperazin-1-yl]-3-pyridyl]-1H-pyrrolo[2,3-b]pyridine-3-carbonyl]-2,4-difluoro-phenyl]propane-1-sulfonamide] | 3.04 | 9.6
12 | CCN(C)S(=O)(=O)Nc1ccc(F)c(C(=O)c2c[nH]c3ncc(-c4cnc(N5CC[C@@H](C(=O)N6CCC(c7ccc(NC8CCC(=O)NC8=O)cc7)CC6)C5)nc4)cc23)c1F (stereo partly drawn) [Example 129, 5-[2-[(3R)-3-[4-[4-[(2,6-dioxo-3-piperidyl)amino]phenyl]piperidine-1-carbonyl]pyrrolidin-1-yl]pyrimidin-5-yl]-3-[3-[[ethyl(methyl)sulfamoyl]amino]-2,6-difluoro-benzoyl]-1H-pyrrolo[2,3-b]pyridine] | 5.11 | 13.8
13 | CCN(C)S(=O)(=O)Nc1ccc(F)c(C(=O)c2c[nH]c3ncc(-c4ccc(C5=CCN(C(=O)CC6CCN(c7ccc(NC8CCC(=O)NC8=O)cc7)CC6)CC5)cc4)cc23)c1F (stereo not drawn) [Example 92, 5-[4-[1-[2-[1-[4-[(2,6-dioxo-3-piperidyl)amino]phenyl]-4-piperidyl]acetyl]-3,6-dihydro-2H-pyridin-4-yl]phenyl]-3-[3-[[ethyl(methyl)sulfamoyl]amino]-2,6-difluoro-benzoyl]-1H-pyrrolo[2,3-b]pyridine] | 22.9 | 4.78

Other lines, results leading:

Row | DC50 [nM] | Emax [%] | SMILES
14 | 44 | 14 | CCN(C)S(=O)(=O)Nc1ccc(F)c(C(=O)c2c[nH]c3ncc(-c4ccc(N5CCN(C(=O)CCCN6CCC(c7ccc(NC8CCC(=O)NC8=O)cc7)CC6)CC5)nc4)cc23)c1F (stereo not drawn) [Example A17, 5-[6-[4-[4-[4-[4-[(2,6-Dioxopiperidin-3-yl)amino]phenyl]piperidin-1-yl]butanoyl]piperazin-1-yl]pyridin-3-yl]-3-[3-[[ethyl(methyl)sulfamoyl]amino]-2,6-difluorobenzoyl]-1H-pyrrolo[2,3-b]pyridine]
15 | 53 | 13 | CCN(C)S(=O)(=O)Nc1ccc(F)c(C(=O)c2c[nH]c3ncc(-c4ccc(OC5CCN(C(=O)CN6CCC(c7ccc(OC8CCC(=O)NC8=O)cc7)CC6)CC5)cc4)cc23)c1F (stereo not drawn) [Example A30, 5-[4-[1-[2-[4-[4-(2,6-Dioxopiperidin-3-yl)oxyphenyl]piperidin-1-yl]acetyl]piperidin-4-yl]oxyphenyl]-3-[3-[[ethyl(methyl)sulfamoyl]amino]-2,6-difluorobenzoyl]-1H-pyrrolo[2,3-b]pyridine]
16 | 18 | 9 | CCN(C)S(=O)(=O)Nc1ccc(F)c(C(=O)c2c[nH]c3ncc(-c4ccc(N5CCC(NCC(=O)N6CCC(c7ccc(NC8CCC(=O)NC8=O)cn7)CC6)CC5)cc4)cc23)c1F (stereo not drawn) [Example A96, 5-[4-[4-[[2-[4-[5-[(2,6-Dioxopiperidin-3-yl)amino]pyridin-2-yl]piperidin-1-yl]-2-oxoethyl]amino]piperidin-1-yl]phenyl]-3-[3-[[ethyl(methyl)sulfamoyl]amino]-2,6-difluorobenzoyl]-1H-pyrrolo[2,3-b]pyridine; hydrochloride]
17 | 151 | 18 | CCN(C)S(=O)(=O)Nc1ccc(F)c(C(=O)c2c[nH]c3ncc(-c4ccc(N5CCC(NC(=O)CN6CCC(c7ccc(OC8CCC(=O)NC8=O)cn7)CC6)CC5)nc4)cc23)c1F (stereo not drawn) [Example A65, 2-[4-[5-(2,6-Dioxopiperidin-3-yl)oxypyridin-2-yl]piperidin-1-yl]-N-[1-[5-[3-[3-[[ethyl(methyl)sulfamoyl]amino]-2,6-difluorobenzoyl]-1H-pyrrolo[2,3-b]pyridin-5-yl]pyridin-2-yl]piperidin-4-yl]acetamide;formic acid]
18 | 14 | 8 | CC(C)S(=O)(=O)Nc1ccc(F)c(C(=O)c2c[nH]c3ncc(-c4ccc(N5CCN(C(=O)CN6CCC(c7ccc(N8CCC(=O)NC8=O)cc7)CC6)CC5)nc4)cc23)c1F [Example A108, N-[3-[5-[6-[4-[2-[4-[4-(2,4-Dioxo-1,3-diazinan-1-yl)phenyl]piperidin-1-yl]acetyl]piperazin-1-yl]pyridin-3-yl]-1H-pyrrolo[2,3-b]pyridine-3-carbonyl]-2,4-difluorophenyl]propane-2-sulfonamide]
